# Test results from ChEMBL document CHEMBL4507311, “Data for DCP probe A-1155463” (2021).
# Assays:
# [1] = target: Dual specificity tyrosine-phosphorylation-regulated kinase 1B (Homo sapiens) (UniProt Q9Y463); settings: Compound concentration 1000.0 nM
# [2] = system: Epidermal growth factor receptor (Homo sapiens), P00533 [UNDEFINED MUTATION]; settings: Compound concentration 1000.0 nM
# [3] = target: Serine/threonine-protein kinase SIK2 (Homo sapiens) (UniProt Q9H0K1); settings: Compound concentration 1000.0 nM
# Sequence of Serine/threonine-protein kinase SIK2 (Homo sapiens) (Q9H0K1 whole entry, looked up): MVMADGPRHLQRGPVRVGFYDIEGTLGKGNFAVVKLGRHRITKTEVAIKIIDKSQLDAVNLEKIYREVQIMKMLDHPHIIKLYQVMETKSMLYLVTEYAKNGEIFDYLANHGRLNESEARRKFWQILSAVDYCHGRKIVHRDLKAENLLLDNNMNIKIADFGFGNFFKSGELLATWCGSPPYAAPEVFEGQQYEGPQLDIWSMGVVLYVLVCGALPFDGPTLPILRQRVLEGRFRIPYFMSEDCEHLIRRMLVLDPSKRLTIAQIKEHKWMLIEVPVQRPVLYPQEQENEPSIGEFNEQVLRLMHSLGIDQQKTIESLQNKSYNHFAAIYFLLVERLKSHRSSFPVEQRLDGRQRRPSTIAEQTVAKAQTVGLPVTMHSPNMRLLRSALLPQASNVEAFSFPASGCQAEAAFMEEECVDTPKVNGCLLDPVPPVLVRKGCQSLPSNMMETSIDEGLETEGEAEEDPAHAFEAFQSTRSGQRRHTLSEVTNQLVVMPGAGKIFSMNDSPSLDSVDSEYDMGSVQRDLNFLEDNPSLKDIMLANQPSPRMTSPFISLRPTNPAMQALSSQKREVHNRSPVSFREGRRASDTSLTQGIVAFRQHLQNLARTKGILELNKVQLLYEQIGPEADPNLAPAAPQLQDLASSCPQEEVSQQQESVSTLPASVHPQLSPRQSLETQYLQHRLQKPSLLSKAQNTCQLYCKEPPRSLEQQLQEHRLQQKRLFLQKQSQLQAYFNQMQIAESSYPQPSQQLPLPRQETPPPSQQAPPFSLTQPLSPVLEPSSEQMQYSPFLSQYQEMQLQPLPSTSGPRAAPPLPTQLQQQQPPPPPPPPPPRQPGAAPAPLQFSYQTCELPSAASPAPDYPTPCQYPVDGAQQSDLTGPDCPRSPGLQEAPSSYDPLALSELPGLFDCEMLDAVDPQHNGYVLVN
# [4] = target: D(4) dopamine receptor (Homo sapiens) (UniProt P21917); settings: Compound concentration 10.0 uM
# [5] = target: Serine/threonine-protein kinase 10 (Homo sapiens) (UniProt O94804); settings: Compound concentration 1000.0 nM
# [6] = target: Phosphatidylinositol 4-kinase beta (Homo sapiens) (UniProt Q9UBF8); settings: Compound concentration 1000.0 nM
# [7] = target: Citron Rho-interacting kinase (Homo sapiens) (UniProt O14578); settings: Compound concentration 1000.0 nM
# [8] = target: Cyclin-dependent kinase 14 (Homo sapiens) (UniProt O94921); settings: Compound concentration 1000.0 nM
# [9] = target: Serine/threonine-protein kinase Chk1 (Homo sapiens) (UniProt O14757); settings: Compound concentration 1000.0 nM
# [10] = target: Inhibitor of nuclear factor kappa-B kinase subunit epsilon (Homo sapiens) (UniProt Q14164); settings: Compound concentration 1000.0 nM
# [11] = target: Aurora kinase A (Homo sapiens) (UniProt O14965); settings: Compound concentration 1000.0 nM
# [12] = target: Serine/threonine-protein kinase pim-2 (Homo sapiens) (UniProt Q9P1W9); settings: Compound concentration 1000.0 nM
# [13] = target: Dual specificity mitogen-activated protein kinase kinase 3 (Homo sapiens) (UniProt P46734); settings: Compound concentration 1000.0 nM
# [14] = target: Ribosomal protein S6 kinase beta-1 (Homo sapiens) (UniProt P23443); settings: Compound concentration 1000.0 nM
# [15] = target: Serine/threonine-protein kinase Nek2 (Homo sapiens) (UniProt P51955); settings: Compound concentration 1000.0 nM
# [16] = target: Delta-type opioid receptor (Homo sapiens, UniProt P41143); settings: Compound concentration 10.0 uM
# Sequence of Delta-type opioid receptor (P41143 whole entry): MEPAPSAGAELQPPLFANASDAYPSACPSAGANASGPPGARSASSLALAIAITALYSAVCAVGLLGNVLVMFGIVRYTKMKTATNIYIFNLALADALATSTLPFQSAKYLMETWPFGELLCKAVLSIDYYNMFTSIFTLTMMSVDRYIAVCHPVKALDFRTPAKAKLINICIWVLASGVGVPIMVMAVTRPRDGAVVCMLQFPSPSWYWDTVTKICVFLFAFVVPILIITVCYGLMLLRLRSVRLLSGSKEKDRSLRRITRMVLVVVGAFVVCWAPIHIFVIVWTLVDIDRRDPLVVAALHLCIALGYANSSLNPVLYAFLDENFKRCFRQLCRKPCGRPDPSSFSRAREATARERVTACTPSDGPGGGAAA
# [17] = target: Serine/threonine-protein kinase PLK2 (Homo sapiens) (UniProt Q9NYY3); settings: Compound concentration 1000.0 nM
# [18] = target: Serine/threonine-protein kinase Nek5 (Homo sapiens) (UniProt Q6P3R8); settings: Compound concentration 1000.0 nM
# Sequence of Serine/threonine-protein kinase Nek5 (Homo sapiens) (Q6P3R8 whole entry): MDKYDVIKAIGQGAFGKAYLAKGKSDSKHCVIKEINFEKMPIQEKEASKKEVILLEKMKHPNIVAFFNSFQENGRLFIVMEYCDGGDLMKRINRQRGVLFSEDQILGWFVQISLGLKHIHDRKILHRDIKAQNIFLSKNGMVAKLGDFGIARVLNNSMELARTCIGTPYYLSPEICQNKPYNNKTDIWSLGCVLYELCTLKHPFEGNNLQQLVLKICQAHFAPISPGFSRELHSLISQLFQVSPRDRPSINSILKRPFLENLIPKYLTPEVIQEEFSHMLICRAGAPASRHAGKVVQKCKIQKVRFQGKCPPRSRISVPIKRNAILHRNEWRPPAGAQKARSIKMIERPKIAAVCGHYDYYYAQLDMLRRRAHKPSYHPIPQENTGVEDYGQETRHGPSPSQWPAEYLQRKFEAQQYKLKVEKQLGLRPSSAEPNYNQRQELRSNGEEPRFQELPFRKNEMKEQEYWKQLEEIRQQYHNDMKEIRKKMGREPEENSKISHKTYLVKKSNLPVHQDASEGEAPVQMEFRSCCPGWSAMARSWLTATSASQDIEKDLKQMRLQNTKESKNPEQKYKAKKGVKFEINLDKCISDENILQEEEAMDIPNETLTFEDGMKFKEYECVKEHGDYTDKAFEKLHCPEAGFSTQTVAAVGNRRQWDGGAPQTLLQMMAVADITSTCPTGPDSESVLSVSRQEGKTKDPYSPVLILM
# [19] = system: ALK tyrosine kinase receptor (Homo sapiens), Q9UM73 [C1156Y]; settings: Compound concentration 1000.0 nM
# [20] = target: Tyrosine-protein kinase Srms (Homo sapiens) (UniProt Q9H3Y6); settings: Compound concentration 1000.0 nM
# Sequence of Tyrosine-protein kinase Srms (Homo sapiens) (Q9H3Y6 whole entry): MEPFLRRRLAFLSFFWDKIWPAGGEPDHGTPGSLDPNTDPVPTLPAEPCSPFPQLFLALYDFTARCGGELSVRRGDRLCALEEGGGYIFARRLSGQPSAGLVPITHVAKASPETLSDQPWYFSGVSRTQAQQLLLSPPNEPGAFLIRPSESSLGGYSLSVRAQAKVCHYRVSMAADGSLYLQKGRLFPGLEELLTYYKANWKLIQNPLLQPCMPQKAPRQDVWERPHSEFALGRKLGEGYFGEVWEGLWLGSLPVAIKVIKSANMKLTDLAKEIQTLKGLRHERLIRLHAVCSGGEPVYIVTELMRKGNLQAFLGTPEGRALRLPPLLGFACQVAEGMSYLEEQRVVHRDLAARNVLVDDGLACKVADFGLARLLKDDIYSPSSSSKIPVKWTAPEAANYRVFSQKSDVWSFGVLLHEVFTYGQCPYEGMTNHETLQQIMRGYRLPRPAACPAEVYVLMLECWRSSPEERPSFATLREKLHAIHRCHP
# [21] = target: Serine/threonine-protein kinase Chk2 (Homo sapiens) (UniProt O96017); settings: Compound concentration 1000.0 nM
# [22] = target: Uncharacterized serine/threonine-protein kinase SBK3 (Homo sapiens) (UniProt P0C264); settings: Compound concentration 1000.0 nM
# [23] = target: Serine/threonine-protein kinase mTOR (Homo sapiens) (UniProt P42345); settings: Compound concentration 1000.0 nM
# [24] = target: Histamine H1 receptor (Homo sapiens) (UniProt P35367); settings: Compound concentration 10.0 uM
# [25] = target: 5-hydroxytryptamine receptor 6 (Homo sapiens) (UniProt P50406); settings: Compound concentration 10.0 uM
# [26] = target: Tyrosine-protein kinase Lck (Homo sapiens) (UniProt P06239); settings: Compound concentration 1000.0 nM
# [27] = target: MAP kinase-activated protein kinase 2 (Homo sapiens) (UniProt P49137); settings: Compound concentration 1000.0 nM
# Sequence of MAP kinase-activated protein kinase 2 (Homo sapiens) (P49137 whole entry, looked up): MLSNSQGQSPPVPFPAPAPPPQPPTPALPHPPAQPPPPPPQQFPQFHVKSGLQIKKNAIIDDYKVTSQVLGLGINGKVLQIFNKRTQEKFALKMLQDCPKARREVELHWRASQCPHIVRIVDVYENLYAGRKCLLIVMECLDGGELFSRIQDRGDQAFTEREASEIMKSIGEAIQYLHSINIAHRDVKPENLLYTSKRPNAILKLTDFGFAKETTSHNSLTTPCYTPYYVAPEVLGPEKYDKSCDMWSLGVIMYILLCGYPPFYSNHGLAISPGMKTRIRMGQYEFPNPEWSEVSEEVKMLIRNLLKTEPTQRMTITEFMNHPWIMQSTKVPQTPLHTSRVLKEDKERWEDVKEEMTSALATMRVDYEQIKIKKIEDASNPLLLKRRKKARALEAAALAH
# [28] = target: Serine/threonine-protein kinase Sgk2 (Homo sapiens) (UniProt Q9HBY8); settings: Compound concentration 1000.0 nM
# [29] = target: Death-associated protein kinase 3 (Homo sapiens) (UniProt O43293); settings: Compound concentration 1000.0 nM
# [30] = target: Ephrin type-A receptor 1 (Homo sapiens) (UniProt P21709); settings: Compound concentration 1000.0 nM
# [31] = target: Serine/threonine-protein kinase 32B (Homo sapiens) (UniProt Q9NY57); settings: Compound concentration 1000.0 nM
# Sequence of Serine/threonine-protein kinase 32B (Homo sapiens) (Q9NY57 whole entry): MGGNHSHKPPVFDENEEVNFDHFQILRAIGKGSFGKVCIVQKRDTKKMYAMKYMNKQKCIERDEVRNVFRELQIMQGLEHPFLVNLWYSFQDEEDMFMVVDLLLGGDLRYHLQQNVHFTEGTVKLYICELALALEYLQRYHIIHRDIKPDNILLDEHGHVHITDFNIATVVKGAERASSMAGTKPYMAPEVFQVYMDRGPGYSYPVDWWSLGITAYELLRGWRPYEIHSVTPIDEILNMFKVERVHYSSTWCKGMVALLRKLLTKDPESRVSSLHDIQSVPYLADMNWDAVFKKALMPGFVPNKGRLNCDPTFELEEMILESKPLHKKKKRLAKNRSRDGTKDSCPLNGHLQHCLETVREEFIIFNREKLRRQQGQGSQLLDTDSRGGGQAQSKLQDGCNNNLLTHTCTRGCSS
# [32] = target: SNF-related serine/threonine-protein kinase (Homo sapiens) (UniProt Q9NRH2); settings: Compound concentration 1000.0 nM
# [33] = target: Mitogen-activated protein kinase 7 (Homo sapiens) (UniProt Q13164); settings: Compound concentration 1000.0 nM
# [34] = target: Ribosomal protein S6 kinase alpha-2 (Homo sapiens) (UniProt Q15349); settings: Compound concentration 1000.0 nM
# [35] = target: Serine/threonine-protein kinase MARK1 (Homo sapiens) (UniProt Q9P0L2); settings: Compound concentration 1000.0 nM
# [36] = target: Serine/threonine-protein kinase 35 (Homo sapiens) (UniProt Q8TDR2); settings: Compound concentration 1000.0 nM
# Sequence of Serine/threonine-protein kinase 35 (Homo sapiens) (Q8TDR2 whole entry): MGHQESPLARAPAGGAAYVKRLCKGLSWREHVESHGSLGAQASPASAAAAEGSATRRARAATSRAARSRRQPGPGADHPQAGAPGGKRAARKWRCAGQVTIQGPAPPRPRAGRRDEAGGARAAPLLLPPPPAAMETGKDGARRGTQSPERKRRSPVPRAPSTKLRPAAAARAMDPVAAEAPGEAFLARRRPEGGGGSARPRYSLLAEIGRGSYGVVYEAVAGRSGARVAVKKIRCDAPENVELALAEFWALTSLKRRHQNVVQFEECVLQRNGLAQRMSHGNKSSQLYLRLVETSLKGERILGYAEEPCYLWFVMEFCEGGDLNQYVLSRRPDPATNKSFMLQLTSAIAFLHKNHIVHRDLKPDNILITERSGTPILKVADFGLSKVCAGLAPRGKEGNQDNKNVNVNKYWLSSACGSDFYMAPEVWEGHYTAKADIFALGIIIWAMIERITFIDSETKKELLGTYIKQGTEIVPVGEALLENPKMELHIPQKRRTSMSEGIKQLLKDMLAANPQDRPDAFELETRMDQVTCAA
# [37] = system: ALK tyrosine kinase receptor (Homo sapiens), Q9UM73 [L1196M]; settings: Compound concentration 1000.0 nM
# [38] = target: Phosphatidylinositol 4-phosphate 3-kinase C2 domain-containing subunit beta (Homo sapiens) (UniProt O00750); settings: Compound concentration 1000.0 nM
# [39] = target: Wee1-like protein kinase 2 (Homo sapiens) (UniProt P0C1S8); settings: Compound concentration 1000.0 nM
# [40] = system: Fibroblast growth factor receptor 3 (Homo sapiens), P22607 [G697C]; settings: Compound concentration 1000.0 nM
# [41] = target: Bone morphogenetic protein receptor type-1B (Homo sapiens) (UniProt O00238); settings: Compound concentration 1000.0 nM
# [42] = system: Phosphatidylinositol 4,5-bisphosphate 3-kinase catalytic subunit alpha isoform (Homo sapiens), P42336 [I800L]; settings: Compound concentration 1000.0 nM
# [43] = target: Receptor-interacting serine/threonine-protein kinase 4 (Homo sapiens) (UniProt P57078); settings: Compound concentration 1000.0 nM
# [44] = target: Angiopoietin-1 receptor (Homo sapiens) (UniProt Q02763); settings: Compound concentration 1000.0 nM
# [45] = target: Tyrosine-protein kinase ABL2 (Homo sapiens) (UniProt P42684); settings: Compound concentration 1000.0 nM
# Sequence of Tyrosine-protein kinase ABL2 (Homo sapiens) (P42684 whole entry): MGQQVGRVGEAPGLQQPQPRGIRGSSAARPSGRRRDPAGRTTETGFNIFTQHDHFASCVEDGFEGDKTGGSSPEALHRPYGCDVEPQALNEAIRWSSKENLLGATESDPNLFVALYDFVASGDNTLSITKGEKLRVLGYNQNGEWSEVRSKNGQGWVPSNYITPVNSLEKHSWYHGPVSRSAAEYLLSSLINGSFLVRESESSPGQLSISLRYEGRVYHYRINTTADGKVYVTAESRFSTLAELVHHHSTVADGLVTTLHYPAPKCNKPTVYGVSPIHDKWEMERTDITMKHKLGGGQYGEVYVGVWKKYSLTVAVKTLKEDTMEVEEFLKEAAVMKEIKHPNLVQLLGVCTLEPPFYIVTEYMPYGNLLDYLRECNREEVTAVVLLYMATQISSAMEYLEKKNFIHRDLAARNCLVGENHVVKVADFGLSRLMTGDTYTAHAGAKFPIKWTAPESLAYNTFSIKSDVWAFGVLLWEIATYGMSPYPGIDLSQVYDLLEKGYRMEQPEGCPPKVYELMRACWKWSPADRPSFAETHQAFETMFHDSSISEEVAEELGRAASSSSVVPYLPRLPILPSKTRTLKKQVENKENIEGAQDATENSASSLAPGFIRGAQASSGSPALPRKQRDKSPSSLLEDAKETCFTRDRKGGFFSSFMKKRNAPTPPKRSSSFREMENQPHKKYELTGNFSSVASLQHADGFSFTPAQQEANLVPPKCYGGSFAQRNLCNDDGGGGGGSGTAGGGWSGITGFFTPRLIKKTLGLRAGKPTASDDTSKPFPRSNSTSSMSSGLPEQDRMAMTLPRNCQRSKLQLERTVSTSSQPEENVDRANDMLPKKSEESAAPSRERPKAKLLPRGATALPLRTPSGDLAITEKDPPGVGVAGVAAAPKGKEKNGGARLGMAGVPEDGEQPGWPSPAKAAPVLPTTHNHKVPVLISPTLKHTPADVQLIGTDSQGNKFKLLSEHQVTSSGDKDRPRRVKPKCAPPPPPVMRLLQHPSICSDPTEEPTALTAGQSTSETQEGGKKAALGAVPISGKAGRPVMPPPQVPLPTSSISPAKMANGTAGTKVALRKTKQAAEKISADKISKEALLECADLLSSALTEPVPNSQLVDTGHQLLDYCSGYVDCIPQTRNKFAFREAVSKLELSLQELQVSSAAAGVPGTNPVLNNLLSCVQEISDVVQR
compound,measurement,setting,value
CN(C)CC#Cc1ccc(OCCCc2sc(N3CCc4cccc(C(=O)Nc5nc6ccccc6s5)c4C3)nc2C(=O)O)c(F)c1 [A-1155463],residual activity,[1],87%
same,residual activity,[2],100%
same,residual activity,[3],96%
same,inhibition,[4],-3.48%
same,residual activity,[5],100%
same,residual activity,[6],100%
same,residual activity,[7],77%
same,residual activity,[8],100%
same,residual activity,[9],89%
same,residual activity,[10],100%
same,residual activity,[11],92%
same,residual activity,[12],100%
same,residual activity,[13],100%
same,residual activity,[14],100%
same,residual activity,[15],92%
same,inhibition,[16],54.6%
same,residual activity,[17],94%
same,residual activity,[18],87%
same,residual activity,[19],100%
same,residual activity,[20],100%
same,residual activity,[21],100%
same,residual activity,[22],100%
same,residual activity,[23],100%
same,inhibition,[24],39.8%
same,inhibition,[25],-1.75%
same,residual activity,[26],100%
same,residual activity,[27],88%
same,residual activity,[28],100%
same,residual activity,[29],90%
same,residual activity,[30],100%
same,residual activity,[31],95%
same,residual activity,[32],100%
same,residual activity,[33],99%
same,residual activity,[34],100%
same,residual activity,[35],93%
same,residual activity,[36],86%
same,residual activity,[37],100%
same,residual activity,[38],100%
same,residual activity,[39],100%
same,residual activity,[40],88%
same,residual activity,[41],84%
same,residual activity,[42],75%
same,residual activity,[43],100%
same,residual activity,[44],100%
same,residual activity,[45],100%
